Some test systems named below: CCRF-CEM leukemia; EKVX NSCLC; CAKI-1 renal; SR leukemia; SK-MEL-5 melanoma; SF-268 CNS; MDA-N; MDA-MB-231 breast; DU-145 prostate; SN12C renal.
Holding throughout (test): DTP human tumour cell line panel, 48 h

Each structure is given as a SMILES string.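 Step 1: Grow cells in 96-well plates. Step 2: Expose to compound for 48 hours at 5 concentrations. Step 3: Interpolate endpoints linearly; if unreached, use highest concentration. TGI: concentration producing complete growth inhibition.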

Usually TGI stands for the concentration giving total growth inhibition. A high value points to less potent growth arrest.

As for `O=C1C2Cc3c(n(C(=O)c4ccccc4)c4ccccc34)CC2C(=O)N1c1ccc(Nc2ccc(N3C(=O)C4Cc5c(n(C(=O)c6ccccc6)c6ccccc56)CC4C3=O)cc2)cc1` (stereo not given), the TGI in the test with CCRF-CEM leukemia, in the test with EKVX NSCLC, in the test with CAKI-1 renal, in the test with SR leukemia, in the test with SK-MEL-5 melanoma and in the test on SF-268 CNS was more than 100 µM each time. Also, the TGI in the test with MDA-N, with MDA-MB-231 breast, in the test with DU-145 prostate and with SN12C renal was more than 100 µM each time.

Regarding `N=c1ccc2nc(N)nn(O)c-2c1`, the total growth inhibition concentration (TGI) in the test with CCRF-CEM leukemia, with EKVX NSCLC, in the test with CAKI-1 renal, in the test on SR leukemia, in the test on SK-MEL-5 melanoma and in the test on SF-268 CNS was more than 100 µM each time. Also, the TGI in the test on MDA-N, in the test on MDA-MB-231 breast, in the test with DU-145 prostate and with SN12C renal was more than 100 µM each time.

With `O=C(CC(c1ccccc1)C1C(=O)NC(=S)NC1=O)c1ccc([N+](=O)[O-])cc1` (stereo not given), the TGI with CCRF-CEM leukemia is more than 100 µM; in the test on EKVX NSCLC, more than 100 µM; in the test on CAKI-1 renal, 59.4 µM; with SR leukemia it was more than 100 µM; in the test with SK-MEL-5 melanoma, more than 100 µM; with SF-268 CNS it was more than 100 µM. Also, the concentration for total growth inhibition (TGI) in the test on MDA-N, in the test on MDA-MB-231 breast, in the test with DU-145 prostate and with SN12C renal was more than 100 µM each time.

For `Nc1cc(S(=O)(=O)O)cc2ccc(S(=O)(=O)O)cc12`, the TGI with CCRF-CEM leukemia, in the test on EKVX NSCLC, with CAKI-1 renal, with SR leukemia, in the test on SK-MEL-5 melanoma and in the test on SF-268 CNS was more than 100 µM in each case. For the same compound, the TGI in the test with MDA-N, in the test on MDA-MB-231 breast, in the test on DU-145 prostate and in the test with SN12C renal was more than 100 µM in each case.

With `O=C(O)C(O)C(O)C(O)C(O)C(=O)O` (stereo not given), the TGI in the test on CCRF-CEM leukemia, in the test with EKVX NSCLC, with CAKI-1 renal, in the test on SR leukemia, in the test on SK-MEL-5 melanoma and with SF-268 CNS was more than 100 µM in each case. Further, the TGI with MDA-N, with MDA-MB-231 breast, with DU-145 prostate and in the test with SN12C renal was more than 100 µM each time.

With `Cc1cc(C)c2c(=O)n(CC(O)CN3CCN(CCOCCO)CC3)sc2n1` (stereo not given), the TGI was more than 100 µM in the test on CCRF-CEM leukemia; 35.3 µM in the test with EKVX NSCLC; more than 100 µM in the test with CAKI-1 renal; more than 100 µM in the test on SR leukemia; 34.5 µM in the test on SK-MEL-5 melanoma; 39.8 µM in the test with SF-268 CNS. The TGI turned out to be 29.2 µM in the test with MDA-N, 37.6 µM in the test with MDA-MB-231 breast, 48.2 µM with DU-145 prostate and 37.1 µM with SN12C renal.

With `CN(C)C(=O)OC1=CC2CCC(C1)N2C` (stereo not given), the TGI in the test with CCRF-CEM leukemia, in the test on EKVX NSCLC, with CAKI-1 renal, with SR leukemia, in the test with SK-MEL-5 melanoma and with SF-268 CNS was more than 100 µM each time. Further, the TGI in the test with MDA-N, in the test on MDA-MB-231 breast, with DU-145 prostate and in the test on SN12C renal was more than 100 µM in each case.

Take `O=C1/C(=C/c2[nH]ncc2-c2ccc(Cl)cc2)C(=O)N(c2ccccc2)C1c1ccccc1` (stereo not given): the total growth inhibition concentration (TGI) stood at 53.7 µM in the test with CCRF-CEM leukemia; 51.3 µM with EKVX NSCLC; 31.1 µM in the test with CAKI-1 renal; 30 µM in the test with SR leukemia; 27.5 µM in the test with SK-MEL-5 melanoma; 40.9 µM in the test on SF-268 CNS. The TGI with MDA-N is 36.9 µM; in the test with MDA-MB-231 breast, 42.6 µM; in the test on DU-145 prostate, 50.3 µM; with SN12C renal, 85.7 µM.

Regarding `O/C(=C\c1nc2ccccc2nc1/C=C(\O)c1ccc(F)cc1)c1ccc(F)cc1`, the TGI in the test on CCRF-CEM leukemia, with EKVX NSCLC, in the test with CAKI-1 renal, with SR leukemia, in the test on SK-MEL-5 melanoma and with SF-268 CNS was more than 100 µM throughout. Besides, the TGI in the test with MDA-N, in the test with MDA-MB-231 breast, in the test with DU-145 prostate and with SN12C renal was more than 100 µM each time.

Values taken from PubChem BioAssay (NCI).
